Results published in patent US8497261B2, “3-aminocaprolactam compounds for treating inflammatory disorders” (Cambridge Enterprise Limited, priority 2004, dated 2013).

What was measured:
[1] = test system: chemokine-induced migration; experiment: Chemokine-induced migration in vitro (prior compounds); assay type: cell-based; conditions: compared with (S)-3-(undec-10-enoyl)-aminoglutarimide
Stability in human serum = assay type: in vitro ADME; conditions: 37° C.
Excerpt: As an approach to identifying such stable anlogs, various derivatives of (S)-3-(undec-10-enoyl)-aminoglutarimide have been tested for their stability in serum.

[2] = cited from earlier work

C=CCCCCCCCCC(=O)[C@@H]1CCCNC1=O [(S)-3-(undec-10-enoyl)-tetrahydropyridin-2-one]
potency compared with the parental molecule [1]: considerably reduced potency
time completely stable in human serum (Stability in human serum): at least 7 days

CCCCC[C@H]1CC[C@H](C(=O)N[C@H]2CCCNC(=O)C2)CC1 [Example 4, (S)-3-(trans-4′-pentylcyclohexane-1-carbonyl)amino-caprolactam]
melting point: 182 to 184 °C

c(DCys-DG1n-DIle-DTrp-DLys-DG1n-DLys-DPro-DAsp-DLeu-DCys)-NH2 [NR583.14.3]
half-life period of clearance from blood plasma ([2]; after intravenous injection): less than 30 minutes
oral bioavailability ([2]; in vivo, po): not orally bioavailable
